# Target: T1, human insulin receptor (IR) (Homo sapiens, UniProt P06213)
# Experiment: Binding affinity to the human insulin receptor relative to human insulin (SPA antibody capture assay)
# Conditions: binding affinity to the human insulin receptor relative to that of human insulin
# Procedure: The PEGylated single-chain insulins were tested for biological insulin activity as measured by binding affinity to the human insulin receptor (IR) relative to that of human insulin as described below.
# Target sequence in this assay (P06213 28-746 isoform P06213-2 limits assumed): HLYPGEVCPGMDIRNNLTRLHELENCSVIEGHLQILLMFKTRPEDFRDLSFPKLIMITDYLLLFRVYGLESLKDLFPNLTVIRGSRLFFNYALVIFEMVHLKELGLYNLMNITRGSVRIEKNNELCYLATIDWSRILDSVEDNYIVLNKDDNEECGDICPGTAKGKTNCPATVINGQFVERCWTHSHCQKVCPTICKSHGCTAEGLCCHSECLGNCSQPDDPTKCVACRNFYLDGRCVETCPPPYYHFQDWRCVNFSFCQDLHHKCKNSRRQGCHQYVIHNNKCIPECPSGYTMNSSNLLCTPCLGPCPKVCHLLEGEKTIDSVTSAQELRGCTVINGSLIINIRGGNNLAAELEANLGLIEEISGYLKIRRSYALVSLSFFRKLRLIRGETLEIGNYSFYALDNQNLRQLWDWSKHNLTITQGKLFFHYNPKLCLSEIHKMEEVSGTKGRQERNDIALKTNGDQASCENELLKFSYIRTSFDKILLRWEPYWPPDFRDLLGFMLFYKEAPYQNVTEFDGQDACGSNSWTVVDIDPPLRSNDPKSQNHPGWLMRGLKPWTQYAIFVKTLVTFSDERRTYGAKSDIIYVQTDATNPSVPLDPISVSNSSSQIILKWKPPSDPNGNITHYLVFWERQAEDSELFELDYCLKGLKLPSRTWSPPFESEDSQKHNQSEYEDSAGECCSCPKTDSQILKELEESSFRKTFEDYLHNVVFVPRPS
# Target sequence in this assay (P06213 763-1382 partner limits assumed): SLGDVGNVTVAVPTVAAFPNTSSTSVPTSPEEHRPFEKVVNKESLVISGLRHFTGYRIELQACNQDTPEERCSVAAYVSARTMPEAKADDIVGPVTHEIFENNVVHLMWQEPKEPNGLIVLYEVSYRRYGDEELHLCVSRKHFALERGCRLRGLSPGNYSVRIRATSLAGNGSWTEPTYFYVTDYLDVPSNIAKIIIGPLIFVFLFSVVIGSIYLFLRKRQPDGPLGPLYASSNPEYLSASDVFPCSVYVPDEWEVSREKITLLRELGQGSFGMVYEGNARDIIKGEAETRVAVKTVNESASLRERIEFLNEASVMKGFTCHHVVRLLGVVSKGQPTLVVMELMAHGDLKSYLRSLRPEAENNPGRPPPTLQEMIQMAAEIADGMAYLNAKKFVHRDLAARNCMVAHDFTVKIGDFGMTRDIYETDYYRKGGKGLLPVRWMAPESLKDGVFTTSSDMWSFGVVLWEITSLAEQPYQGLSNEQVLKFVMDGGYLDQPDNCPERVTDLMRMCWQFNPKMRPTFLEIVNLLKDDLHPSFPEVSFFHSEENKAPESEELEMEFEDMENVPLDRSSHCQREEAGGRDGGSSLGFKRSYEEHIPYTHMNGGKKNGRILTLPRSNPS
# Insulin receptor binding of the PEGylated single-chain insulins of the invention.
# The affinity of the PEGylated, single-chain insulins the invention for the human insulin receptor is determined by a SPA assay (Scintillation Proximity Assay) microtiterplate antibody capture assay. SPA-PVT antibody-binding beads, anti-mouse reagent (Amersham Biosciences, Cat No. PRNQ0017) are mixed with 25 ml of binding buffer (100 mM HEPES pH 7.8; 100 mM sodium chloride, 10 mM MgSO4, 0.025% Tween-20). Reagent mix for a single Packard Optiplate (Packard No. 6005190) is composed of 2.4 μl of a 1:5000 diluted purified recombinant human insulin receptor—exon 11, an amount of a stock solution of A14 Tyr[125I]-human insulin corresponding to 5000 cpm per 100 μl of reagent mix, 12 μl of a 1:1000 dilution of F12 antibody, 3 ml of SPA-beads and binding buffer to a total of 12 ml. A total of 100 μl is then added and a dilution series is made from appropriate samples. To the dilution series is then added 100 μl of reagent mix and the samples were incubated for 16 hours while gently shaken. The phases are then separated by centrifugation for 1 min and the plates counted in a Topcounter. The binding data are fitted using the nonlinear regression algorithm in the GraphPad Prism 2.01 (GraphPad Software, San Diego, Calif.).
row,Substance,IR binding in percent of human insulin [%]
1,B(1-29)-B29A-VGLSSGQ-A(1-21)-A8K(N^ε-3-(mPEG2000-yl)propionyl)-A18Q Human Insulin [Example 4],4.6
2,B(1-29)-B29A-VGLSSGQ-A(1-22)-A18Q-A22K(N^ε-3-(mPEG2000-yl)propionyl) Human Insulin [Example 6],12
3,B(1-29)-B22K(N^ε-3-(mPEG2000-yl)propionyl)-B29A-A18Q-VGLSSGQ-A(1-21) Human Insulin [Example 2],19.7
4,B(1-29)-B1(N^α-3-(mPEG2000-yl)propionyl)-B29A-VGLSSGQ-A(1-21)-A18Q Human Insulin [Example 8],8.1
5,B(1-29)-B29A-VK(N^ε-3-(mPEG2000-yl)propionyl)LSSGQ-A(1-21)-A18Q Human Insulin [Example 5],3.2
6,B(1-29)-B3K(N^ε-3-(mPEG2000-yl)propionyl)-B29A-VGLSSGQ-A(1-21)-A18Q Human Insulin [Example 7],4.5
7,B(1-29)-B3Q-B29R-TGLGK(N^ε-3-(mPEG2000-yl)propionyl)GQ-A(1-21)-A18Q-A21G Human Insulin [Example 1],6.8
8,B(1-29)-B29K(N^ε-3-(mPEG2000-yl-propionyl)-VGLSSGQ-A(1-21)-A18Q Human Insulin [Example 3],5.3

# Target: T1, human insulin receptor (IR)
# Experiment: displacement of 125I-human insulin from human insulin receptor; affinity relative to human insulin
# Conditions: not given
# Target sequence in this assay (P06213 other isoform, or with tags, fused parts or gaps limits assumed, form in doubt): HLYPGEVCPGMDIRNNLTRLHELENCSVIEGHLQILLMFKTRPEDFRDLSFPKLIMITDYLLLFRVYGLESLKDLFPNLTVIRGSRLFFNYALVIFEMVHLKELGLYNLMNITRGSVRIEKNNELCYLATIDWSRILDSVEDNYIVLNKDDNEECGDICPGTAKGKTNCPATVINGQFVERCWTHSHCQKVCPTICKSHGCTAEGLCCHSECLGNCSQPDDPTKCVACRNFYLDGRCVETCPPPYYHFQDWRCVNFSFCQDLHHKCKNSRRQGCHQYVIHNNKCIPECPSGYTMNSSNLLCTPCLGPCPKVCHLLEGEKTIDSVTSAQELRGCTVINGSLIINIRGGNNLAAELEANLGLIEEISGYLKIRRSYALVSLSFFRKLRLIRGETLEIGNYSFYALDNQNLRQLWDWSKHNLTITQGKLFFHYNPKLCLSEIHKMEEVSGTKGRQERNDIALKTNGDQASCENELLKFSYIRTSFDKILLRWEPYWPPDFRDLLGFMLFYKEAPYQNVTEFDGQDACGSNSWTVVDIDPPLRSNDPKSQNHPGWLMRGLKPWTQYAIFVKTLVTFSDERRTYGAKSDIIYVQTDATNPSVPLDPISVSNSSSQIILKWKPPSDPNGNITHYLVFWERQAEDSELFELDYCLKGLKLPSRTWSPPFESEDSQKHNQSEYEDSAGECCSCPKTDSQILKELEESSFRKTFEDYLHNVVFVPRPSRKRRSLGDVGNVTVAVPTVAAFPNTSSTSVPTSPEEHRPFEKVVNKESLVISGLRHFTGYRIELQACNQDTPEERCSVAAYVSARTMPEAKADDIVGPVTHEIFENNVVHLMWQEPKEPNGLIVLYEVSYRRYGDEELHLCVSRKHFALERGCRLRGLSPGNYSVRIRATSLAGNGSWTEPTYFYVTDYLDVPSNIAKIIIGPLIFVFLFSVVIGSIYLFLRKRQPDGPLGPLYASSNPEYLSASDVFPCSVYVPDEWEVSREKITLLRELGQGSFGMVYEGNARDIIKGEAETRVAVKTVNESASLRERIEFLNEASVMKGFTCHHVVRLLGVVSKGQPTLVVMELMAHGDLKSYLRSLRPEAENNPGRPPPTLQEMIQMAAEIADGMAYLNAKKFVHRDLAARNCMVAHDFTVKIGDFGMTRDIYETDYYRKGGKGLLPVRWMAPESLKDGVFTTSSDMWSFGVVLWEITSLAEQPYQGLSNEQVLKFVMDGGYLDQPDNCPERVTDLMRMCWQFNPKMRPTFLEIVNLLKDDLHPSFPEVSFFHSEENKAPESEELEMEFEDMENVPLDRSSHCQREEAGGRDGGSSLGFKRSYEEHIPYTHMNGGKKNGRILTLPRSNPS
row,Substance,IR binding in percent of human insulin [%]
1,B(1-29)-B29A-VGLSSGQ-A(1-21)-A8K(N^ε-3-(mPEG2000-yl)propionyl)-A18Q Human Insulin (from UniProt P01308 25-53; P01308 90-110) (ligand),4.6
2,B(1-29)-B3K(N^ε-3-(mPEG2000-yl)propionyl)-B29A-VGLSSGQ-A(1-21)-A18Q Human Insulin (from UniProt P01308 25-53; P01308 90-110) (ligand),4.5
3,B(1-29)-B29A-VGLSSGQ-A(1-22)-A18Q-A22K(N^ε-3-(mPEG2000-yl)propionyl) Human Insulin (from UniProt P01308 25-53; P01308 90-110) (ligand),12
4,B(1-29)-B29A-VK(N^ε-3-(mPEG2000-yl)propionyl)LSSGQ-A(1-21)-A18Q Human Insulin (from UniProt P01308 25-53; P01308 90-110) (ligand),3.2
5,B(1-29)-B3Q-B29R-TGLGK(N^ε-3-(mPEG2000-yl)propionyl)GQ-A(1-21)-A18Q-A21G Human Insulin (from UniProt P01308 25-53; P01308 90-110) (ligand),6.8
6,B(1-29)-B29K(N^ε-3-(mPEG2000-yl-propionyl)-VGLSSGQ-A(1-21)-A18Q Human Insulin (from UniProt P01308 25-53; P01308 90-110) (ligand),5.3
7,B(1-29)-B1(N^α-3-(mPEG2000-yl)propionyl)-B29A-VGLSSGQ-A(1-21)-A18Q Human Insulin (from UniProt P01308 25-53; P01308 90-110) (ligand),8.1
8,B(1-29)-B22K(N^ε-3-(mPEG2000-yl)propionyl)-B29A-A18Q-VGLSSGQ-A(1-21) Human Insulin (from UniProt P01308 25-53; P01308 90-110) (ligand),19.7
